Measurements reported in article PMC11124387, “A Reliable Multifaceted Solution against Foodborne Viral Infections: The Case of RiLK1 Decapeptide” (Molecules, 2024).
Values joined by “and” are separate entries in the source; they are usually repeats but may differ in a detail not shown here. Identical values can stand only once. Where a SMILES comes first, the peptide text is derived from it.

What was measured:
[1] = tested on: Hepatitis A virus (HAV) strain HM-175; assay: Cell pre-treatment assay, HAV; format: cell-based; settings: cell pre-treatment: cells with peptide 80 µM 1 h 37 °C, peptide removed, then virus 1 h 37 °C, mean ± SD
Protocol: (§1) Four sets of experiments were performed to suppose the effect of RiLK1 and RiLK3 on HAV and MNV-1 [29]. To this aim, 80 µM solutions of the two peptides and HAV and MNV-1 suspensions at a final concentration of 4.7 ± 0.2 log TCID50/mL and 4.5 ± 0.2 log TCID50/mL, respectively, were used in the following experiments: • i) A virus pre-treatment assay to assess the direct interaction between the virus and peptide: the incubation of the peptide with viral suspension for 1 h at room temperature was carried out, followed by its incubation on cells for 1 h at 37 °C. Then, cell monolayers were washed twice with PBS and incubated with 500 µL DMEM/MEM supplemented with 2% of FBS to determine the TCID50/mL. • ii) A cell pre-treatment assay to assess the interaction between the peptide and cells before the viral infection: cell monolayers were preincubated with 100 µL of peptide solution for 1 h at 37 °C, followed by the removal of the peptide, addition to cells of viral suspensions for 1 h at 37 °C, washing step, and culture with 2% FBS DMEM/MEM. • iii) An attachment assay to assess the possible action of the peptide at the stage of virus attachment to cells: cell monolayers were incubated with 100 µL of a suspension containing both the peptide and virus and were incubated for 1 h at 4 °C. Subsequently, the cell monolayers were washed with PBS and incubated for 1 h at 37 °C with a culture medium followed by a washing step and the addition of culture with 2% FBS DMEM/MEM. • iv) An entry assay to assess the possible action of the peptide at the stage of virus internalization into cells: cell monolayers were incubated with 100 µL of the viral suspension for 1 h at 4 °C, followed by the addition of the peptide and incubation for 1 h at 37 °C. Cells were then washed with PBS, and 2% FBS DMEM/MEM was finally added.
(§2) Untreated viral suspensions and peptide solutions, incubated at the same conditions, were used as controls.
(§3) For each treatment, the average and standard deviation of the triplicate analyses were calculated. The virucidal effects of AMPs was assessed by calculating the log reduction value (LRV), i.e., the difference between the infectious titer (log-transformed) of untreated versus treated samples. The statistical significance of differences between treated and untreated samples was determined through one-way analysis of variance (ANOVA) with Bonferroni post hoc comparisons, with a significance level of p < 0.05 (GraphPad Prism v9.5.0, software San Diego, CA, USA).

[2] = tested on: Hepatitis A virus (HAV) strain HM-175; assay: Entry assay, HAV; format: cell-based; settings: entry: cells with virus 1 h at 4 °C, then peptide 80 µM 1 h 37 °C, mean ± SD
Protocol: as §1, §2, §3

[3] = tested on: Murine norovirus strain 1 (MNV-1); assay: Attachment assay, MNV-1; format: cell-based; settings: attachment: cells with peptide 80 µM and virus together 1 h at 4 °C, mean ± SD
Protocol: as §1, §2, §3

[4] = cited from earlier work; for structural stability: pH 2; for conformation in mimicked membrane solutions (self-aggregation): ref [41],[42],[43],[44],[45]
Protocol: In this context, to acquire important information on how the conformational properties of peptides might influence the structure–function relationships and their distinct membrane interaction profiles, the propensity of the new peptides, RiLK30 and AVP2, to adopt a defined secondary structure and to undergo conformational changes were examined by circular dichroism and fluorescence spectroscopy. These analyses were performed in the presence of a negatively charged SDS that is commonly used as a biomimetic membrane model to study the structural features of membranotropic molecules. In previous ...

[5] = tested on: Murine norovirus strain 1 (MNV-1); assay: Cell pre-treatment assay, MNV-1; format: cell-based; settings: cell pre-treatment: cells with peptide 80 µM 1 h 37 °C, peptide removed, then virus 1 h 37 °C, mean ± SD
Protocol: as §1, §2, §3

[6] = tested on: Murine norovirus strain 1 (MNV-1); assay: Entry assay, MNV-1; format: cell-based; settings: entry: cells with virus 1 h at 4 °C, then peptide 80 µM 1 h 37 °C, mean ± SD
Protocol: as §1, §2, §3

[7] = tested on: Hepatitis A virus (HAV) strain HM-175; assay: Virus pre-treatment assay, HAV; format: cell-based; settings: virus pre-treatment: peptide 80 µM with virus 1 h at RT, mean ± SD; for Viral Titre: then on Frp3 cells 1 h 37 °C
Protocol: as §1, with “Subsequently, the cell monolayers were washed with PBS and incubated for 1 h at 37 °C with a culture medium followed by a washing step and the addition of culture with 2% FBS DMEM/MEM. • iv) An entry assay to assess the possible action of the peptide at the stage of virus internalization into cells: cell monolayers were incubated with 100 µL of the viral suspension for 1 h at 4 °C, followed by the addition of the peptide and incubation for 1 h at 37 °C. Cells were then washed with PBS, and 2% FBS DMEM/MEM was finally added.” left out
as §3

[8] = tested on: Hepatitis A virus (HAV) strain HM-175; assay: Attachment assay, HAV; format: cell-based; settings: attachment: cells with peptide 80 µM and virus together 1 h at 4 °C, mean ± SD
Protocol: as §1, §2, §3

Campylobacter jejuni = format: cell-based; settings: peptide 40 and 80 µM, 6 h at 37 °C
Source text: The monophasic variant of Salmonella Typhimurium, Salmonella Napoli, and Campylobacter jejuni were isolated by the Laboratory of Microbiological Food Control—Department of Food Microbiology of the Istituto Zooprofilattico Sperimentale del Mezzogiorno in Portici (Naples, Italy) in raw and processed foodstuffs of animal origin. Specifically, the monophasic variant of S. Typhimurium and S. Napoli were isolated from bivalve mollusks, while C. jejuni was isolated from poultry meat. Bacterial cells were cultured at 37 °C in the appropriate culture media (S. Typhimurium and S. Napoli in buffered peptone water (Thermo Fisher, Milan, Italy) and C. jejuni in Bolton Broth (Oxoid, Madrid, Spain)) until collection and then diluted in fresh broth to a final concentration of 1.5 × 10^3 colony forming units (CFUs)/mL. Thereafter, peptide stock solutions in DMSO were added to the bacterial suspension at the same concentrations used in the virucidal assays (40 and 80 µM) and incubated at 37 °C for 6 h. Samples containing only cell suspension and DMSO were used as controls. […]

Compound | LRV [1] | Viral Titre [1] [logTCID50/mL] | LRV [2] [logTCID50/mL] | Viral Titre [2] [logTCID50/mL] | LRV [3] | Viral Titre [3] [logTCID50/mL] | structural stability [4] | conformation in mimicked membrane solutions (self-aggregation) [4] | LRV [5] | Viral Titre [5] [logTCID50/mL] | LRV [6] [logTCID50/mL] | Viral Titre [6] [logTCID50/mL] | LRV ([6]; listed as RilLK1) [logTCID50/mL] | Viral Titre [7] [logTCID50/mL] | LRV [8] | Viral Titre [8] [logTCID50/mL] | inhibitory activity against Campylobacter jejuni (in words) (Campylobacter jejuni) | LRV ([7]; then on cells 1 h 37 °C) [logTCID50/mL]
CC[C@H](C)[C@H](NC(=O)[C@H](CCCNC(=N)N)NC(=O)[C@@H](NC(=O)[C@H](Cc1c[nH]c2ccccc12)NC(=O)[C@H](CCCCN)NC(=O)[C@H](CC(C)C)NC(=O)[C@@H](N)CCCNC(=N)N)C(C)C)C(=O)N[C@@H](Cc1c[nH]c2ccccc12)C(=O)N[C@@H](CCCNC(=N)N)C(=O)N[C@@H](CCCNC(=N)N)C(N)=O [RiLK1] (H-RLKWVRIWRR-NH2; N-terminus assumed) | 0.1 ± 0.3 logTCID50/mL | 4.6 ± 0.1 | 0.1 ± 0.3 | 4.6 ± 0.1 | 1.4 logTCID50/mL and 1.4 ± 0.4 logTCID50/mL | 3.1 ± 0.2 | high structural stability | higher-ordered self-aggregates | 0.3 ± 0.4 logTCID50/mL | 4.2 ± 0.2 | 1.0 ± 0.4 | 3.5 ± 0.2 | 1.0 | 3.3 ± 0.2 | 1.4 logTCID50/mL and 1.4 ± 0.4 logTCID50/mL | 3.3 ± 0.2 | – | –
KLRWVKIWKK-NH2 [RiLK30, newly designed RiLK1 derivative, Arg residues exchanged with Lys and Lys3 with Arg] | – | – | – | – | – | – | – | – | – | – | – | – | – | – | – | – | the most ineffective | –
RLRWVRIWRR-NH2 [RiLK3, RiLK1 analog differing by one amino acid (Lys replaced with Arg), C-terminally amidated] | 0.9 logTCID50/mL and 0.9 ± 0.4 logTCID50/mL | 3.8 ± 0.2 | 0.5 ± 0.4 | 4.2 ± 0.2 | 1.0 logTCID50/mL and 1.0 ± 0.3 logTCID50/mL | 3.5 ± 0.1 | high structural stability | higher-ordered self-aggregates | 1.0 logTCID50/mL and 1.0 ± 0.3 logTCID50/mL | 3.5 ± 0.1 | 1.0 ± 0.3 | 3.5 ± 0.1 | – | 4.4 ± 0.1 | 1.0 logTCID50/mL and 1.0 ± 0.4 logTCID50/mL | 3.7 ± 0.2 | – | 0.3 ± 0.3
